The values that follow come from ChEMBL document CHEMBL3098024, “Synthesis, molecular modeling and biological evaluation of N-benzylidene-2-((5-(pyridin-4-yl)-1,3,4-oxadiazol-2-yl)thio)acetohydrazide derivatives as potential anticancer agents” (Bioorg Med Chem, 2014).

Each structure is given as a SMILES string.

For one test, the system named is NIH3T3. As to the kind of experiment: Cytotoxicity against mouse NIH/3T3 cells after 24 hrs by MTT assay. Format: ADME, cell-based. The settings on record: NIH3T3, 24 h. Background: Tetrazolium dyes change colour on reduction, which living cells bring about.
A further test deals with HepG2. As to the kind of experiment: Cytotoxicity against human HepG2 cells after 48 hrs by MTT assay. Format: functional, cell-based. The settings on record: HepG2, 48 h.
Test [1] is described as follows: Cytotoxicity against human BGC823 cells after 48 hrs by MTT assay. Format: functional, cell-based. The settings on record: BGC-823, 48 h.
The nature of test [2]: Inhibition of telomerase in human SW1116 cells after 24 hrs by TRAP-PCR-ELISA assay. Format: cell-based. The settings on record: sw 1116. In general terms: An ELISA detects its analyte on a solid surface through an enzyme-linked reagent.
The test system of another test is MCF7. As to the kind of experiment: Cytotoxicity against human MCF7 cells after 48 hrs by MTT assay. It counts as functional, cell-based. The settings on record: MCF7, 48 h.
Test [3] in a line: Cytotoxicity against human SW1116 cells after 48 hrs by MTT assay. The settings on record: SW 1116, 48 h. Format: functional, cell-based.

Take `O=C(CSc1nnc(-c2ccncc2)o1)N/N=C/c1ccco1`: the concentration for half-maximal inhibition (IC50) in the test with NIH3T3 stood at 175 µM; in the test on HepG2, 12.5 µM; in test [1], 25.8 µM; in test [2], 9.63 µM; in the test on MCF7, 16.6 µM; in test [3] it was 18.8 µM. Further, in test [2], the pIC50 was 5.02.
For the molecule `NNC(=O)CSc1nnc(-c2ccncc2)o1`, the IC50 (with HepG2; in test [1]; with MCF7; in test [3]) was 3.26 µM in each case.
`O=C(CSc1nnc(-c2ccncc2)o1)N/N=C/c1cccs1`: the 50% inhibitory concentration (IC50) was 189 µM in the test on NIH3T3; 14.9 µM with HepG2; 26.7 µM in test [1]; 13.5 µM in test [2]; 23.5 µM in the test with MCF7; 24.9 µM in test [3]. Besides, the pIC50 in test [2] amounted to 4.87.
As to `O=C(CSc1nnc(-c2ccncc2)o1)N/N=C/C=C/c1ccccc1`, the 50% inhibitory concentration (IC50) in the test on NIH3T3 stood at 160 µM; with HepG2, 7.42 µM; in test [1], 10.6 µM; in test [2], 6.57 µM; with MCF7, 10.8 µM; in test [3] it was 14.9 µM. The pIC50 in test [2] was 5.18.
As for `O=C(CSc1nnc(-c2ccncc2)o1)N/N=C/c1cccc(F)c1`, the 50% inhibitory concentration (IC50) came to 205 µM with NIH3T3; 19.4 µM with HepG2; 27.5 µM in test [1]; 15.7 µM in test [2]; 24.9 µM with MCF7; 26.7 µM in test [3]. Moreover, the pIC50 in test [2] is given as 4.8.
Turning to `O=C(CSc1nnc(-c2ccncc2)o1)N/N=C/c1cccc(C(F)(F)F)c1`, the IC50 in the test on NIH3T3 was 169 µM; in the test with HepG2, 6.52 µM; in test [1], 13 µM; in test [2], 5.18 µM; with MCF7 it was 14.6 µM; in test [3], 14.9 µM. In test [2], this molecule gave a pIC50 of 5.29.
On to `COc1cccc(/C=N/NC(=O)CSc2nnc(-c3ccncc3)o2)c1`, for which the IC50 turned out to be 179 µM in the test with NIH3T3; 9.17 µM in the test with HepG2; 15.8 µM in test [1]; 7.54 µM in test [2]; 13.8 µM in the test on MCF7; 16.5 µM in test [3]. The molecule also returned a pIC50 in test [2] of 5.12.
Consider `O=C(CSc1nnc(-c2ccncc2)o1)N/N=C/c1ccccc1F`, for which the IC50 with NIH3T3 turned out to be 142 µM; in the test with HepG2 it was 16 µM; in test [1], 24 µM; in test [2], 14.6 µM; in the test with MCF7 it was 21.8 µM; in test [3], 21.5 µM. In test [2], the pIC50 is 4.84.
As for `O=C(CSc1nnc(-c2ccncc2)o1)N/N=C/c1ccccc1[N+](=O)[O-]`, the IC50 with NIH3T3 is 214 µM; with HepG2, 24.7 µM; in test [1], 41.6 µM; in test [2], 18.2 µM; in the test on MCF7, 35.6 µM; in test [3], 30.7 µM. The same molecule had a pIC50 in test [2] of 4.74.
As to `O=C(CSc1nnc(-c2ccncc2)o1)N/N=C/c1ccccc1O`, the IC50 in the test on NIH3T3 worked out at 155 µM; with HepG2 it was 3.51 µM; in test [1], 6.16 µM; in test [2], 3.97 µM; in the test on MCF7, 4.75 µM; in test [3] it was 7.38 µM. For the same molecule, in test [2], the pIC50 is on record as 5.4.
Consider `O=C(CSc1nnc(-c2ccncc2)o1)N/N=C/c1cc(Cl)ccc1O`, for which the IC50 came to 166 µM with NIH3T3; 3.97 µM with HepG2; 5.47 µM in test [1]; 3.13 µM in test [2]; 5.83 µM with MCF7; 5.24 µM in test [3]. The pIC50 in test [2] is 5.5.
As for `O=C(CSc1nnc(-c2ccncc2)o1)N/N=C/c1cc(Br)ccc1O`, the IC50 with NIH3T3 amounted to 156 µM; with HepG2, 6.49 µM; in test [1], 9.59 µM; in test [2], 4.28 µM; in the test on MCF7, 7.77 µM; in test [3] it was 8.15 µM. In test [2], this molecule showed a pIC50 of 5.37.
Turning to `O=C(CSc1nnc(-c2ccncc2)o1)N/N=C/c1cc(Cl)cc(Cl)c1O`, the IC50 with NIH3T3 was determined as 171 µM; in the test on HepG2, 3.26 µM; in test [1] it was 6.34 µM; in test [2], 4.8 µM; with MCF7, 5.92 µM; in test [3], 5.03 µM. Further, the pIC50 in test [2] came out at 5.32.
As for `O=C(CSc1nnc(-c2ccncc2)o1)N/N=C/c1cc(Br)cc(Br)c1O`, the IC50 stood at 190 µM in the test with NIH3T3; 6.54 µM with HepG2; 9.61 µM in test [1]; 7.12 µM in test [2]; 9.01 µM in the test on MCF7; 8.57 µM in test [3]. The molecule further gave a pIC50 in test [2] of 5.15.
Take `O=C(CSc1nnc(-c2ccncc2)o1)N/N=C/c1ccc(O)c(O)c1`: the IC50 was found to be 154 µM with NIH3T3; 0.76 µM in the test with HepG2; 1.26 µM in test [1]; 1.18 µM in test [2]; 0.91 µM with MCF7; 1.54 µM in test [3]. This molecule came in with a pIC50 in test [2] of 5.93.
Regarding `COc1cc(/C=N/NC(=O)CSc2nnc(-c3ccncc3)o2)ccc1O`, the half-maximal inhibitory concentration (IC50) is 148 µM in the test with NIH3T3; 2.92 µM in the test with HepG2; 4.32 µM in test [1]; 2.89 µM in test [2]; 3.78 µM with MCF7; 3.59 µM in test [3]. Further, in test [2], the pIC50 is 5.54.
In the case of `O=C(CSc1nnc(-c2ccncc2)o1)N/N=C/c1ccc(Cl)cc1Cl`, the IC50 with NIH3T3 was 221 µM; in the test on HepG2, 18.6 µM; in test [1] it was 35.6 µM; in test [2] it was 17.8 µM; in the test on MCF7, 27.9 µM; in test [3], 28.9 µM. The pIC50 in test [2] amounted to 4.75.
For `Cc1ccc(/C=N/NC(=O)CSc2nnc(-c3ccncc3)o2)cc1`, the half-inhibitory concentration (IC50) with NIH3T3 is 185 µM; with HepG2 it was 10 µM; in test [1], 21.8 µM; in test [2], 8.51 µM; with MCF7, 14.7 µM; in test [3], 16.8 µM. In addition, the pIC50 in test [2] is recorded as 5.07.
In the case of `O=C(CSc1nnc(-c2ccncc2)o1)N/N=C/c1ccccc1`, the IC50 worked out at 167 µM in the test with NIH3T3; 17.3 µM in the test with HepG2; 22.1 µM in test [1]; 9.72 µM in test [2]; 14.6 µM in the test with MCF7; 16.7 µM in test [3]. In test [2], this molecule came in with a pIC50 of 5.01.
In the case of `O=C(CSc1nnc(-c2ccncc2)o1)N/N=C/c1ccc(F)cc1`, the IC50 was 170 µM in the test on NIH3T3; 12.3 µM with HepG2; 17.8 µM in test [1]; 10.2 µM in test [2]; 13.5 µM with MCF7; 15.7 µM in test [3]. In test [2], this molecule showed a negative-log IC50 (pIC50) of 4.99.
For `O=C(CSc1nnc(-c2ccncc2)o1)N/N=C/c1ccc(Cl)cc1`, the IC50 was 181 µM in the test with NIH3T3; 15.7 µM in the test on HepG2; 20.5 µM in test [1]; 11.9 µM in test [2]; 15.3 µM in the test on MCF7; 17 µM in test [3]. Moreover, in test [2], the pIC50 worked out at 4.93.
On to `O=C(CSc1nnc(-c2ccncc2)o1)N/N=C/c1ccc(Br)cc1`, for which the IC50 in the test on NIH3T3 is 169 µM; with HepG2, 18.6 µM; in test [1], 24.5 µM; in test [2] it was 12.4 µM; in the test with MCF7, 19.1 µM; in test [3], 21.3 µM. The molecule also yielded a pIC50 in test [2] of 4.91.
As for `O=C(CSc1nnc(-c2ccncc2)o1)N/N=C/c1ccc([N+](=O)[O-])cc1`, the IC50 came to 195 µM in the test on NIH3T3; 17.9 µM in the test on HepG2; 31.5 µM in test [1]; 16.7 µM in test [2]; 31.8 µM in the test on MCF7; 25.8 µM in test [3]. The molecule further yielded a pIC50 in test [2] of 4.78.
Take `O=C(CSc1nnc(-c2ccncc2)o1)N/N=C/c1ccc(O)cc1`: the IC50 in the test on NIH3T3 turned out to be 158 µM; in the test with HepG2, 5.51 µM; in test [1] it was 7.94 µM; in test [2] it was 5.36 µM; in the test on MCF7 it was 11.7 µM; in test [3] it was 12.2 µM. Also, the pIC50 in test [2] amounted to 5.27.
With `COc1ccc(/C=N/NC(=O)CSc2nnc(-c3ccncc3)o2)cc1`, the IC50 stood at 132 µM with NIH3T3; 15.8 µM with HepG2; 19.8 µM in test [1]; 9.04 µM in test [2]; 17.6 µM in the test with MCF7; 20.3 µM in test [3]. The same molecule came in with a pIC50 in test [2] of 5.04.
Regarding `O=c1[nH]cc(F)c(=O)[nH]1` [FLUOROURACIL], the IC50 was 7.43 µM with HepG2, 7.48 µM in test [1], 9.79 µM in the test on MCF7 and 5.26 µM in test [3].
On to `CC[n+]1c(-c2ccccc2)c2cc(N)ccc2c2ccc(N)cc21` [HOMIDIUM BROMIDE], for which the results for the IC50 (in the test with NIH3T3; in test [2]) were 135 µM and 2.71 µM, respectively.

One may read the IC50 as the concentration needed to halve the response being measured. Read a low IC50 as higher potency. In general, pIC50 refers to −log10 of the IC50, conventionally taken in molar units. High values mean a low IC50, low ones a high IC50.
